Laboratory results reported in patent US11279712B2, “Macrocyclic compounds that inhibit MCL-1 protein” (AMGEN INC., priority 2017, dated 2022).
Like-named read-outs stand apart in the source and are kept apart here.

Columns and labels:
[1] = system: OPM-2 human multiple myeloma cell line; assay: Cell Viability Assay (OPM-2 10 FBS); assay type: cell-based; conditions: OPM-2 cells, CellTiter-Glo, read-out: OPM-2 10% FBS IC50 IP
Method: Cell Viability Assay (OPM-2 10 FBS)
The human multiple myeloma cell line, OPM-2, was cultured in complete growth medium containing RPMI 1640 and 10% fetal bovine serum (FBS). Cells were seeded into 384-well plates at 3000 cells/well density in complete growth medium containing 10% FBS, and incubated for 16 h with serially diluted test compounds in a 37° C. incubator with 5% CO2. Cell viability was tested using CellTiter-Glo® assay (Promega, Madison, Wis.) according to the manufacturer recommendations. Luminescence was determined using an EnVision® Multilabel plate reader 25 min after the addition of detection reagent. IC50 values were then calculated with Xlfit using a logistical 4-parameter fit model in GraphPad Prism (GraphPad Software, San Diego, Calif.) or in Genedata Screener® (Genedata, Basel, Switzerland).

[2] = target: Mcl-1/Bim interaction (recombinant human Mcl-1 residues 171-327) (Homo sapiens (Human), UniProt Q07820); assay: Cell Free Mcl-1:Bim Affinity Assay (Mcl-1 HTRF); assay type: binding; conditions: TR-FRET, 0.1 nM Mcl-1(171-327), 0.05 nM biotin-Bim(51-76)
Mcl-1/Bim interaction (recombinant human Mcl-1 residues 171-327), sequence (Q07820 171-327): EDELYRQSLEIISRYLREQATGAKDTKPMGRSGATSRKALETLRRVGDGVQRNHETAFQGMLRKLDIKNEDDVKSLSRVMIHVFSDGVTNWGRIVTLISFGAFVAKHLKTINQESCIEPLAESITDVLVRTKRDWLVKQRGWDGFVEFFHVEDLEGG
Method: Cell Free Mcl-1:Bim Affinity Assay (Mcl-1 HTRF)
The inhibition of the Mcl-1/Bim interaction was measured using a time-resolved fluorescence resonance energy transfer (TR-FRET) assay. The recombinant human Mcl-1 (C-terminally 6×His tagged Mcl-1 containing residues 171-327) was generated at Amgen Inc (Thousand Oaks, Calif.). A biotinylated peptide derived from human Bim (residues 51-76) was purchased from CPC Scientific (San Jose, Calif.). The TR-FRET assay was conducted in a 384-well white OptiPlate™ (PerkinElmer, Waltham, Mass.) in a total volume of 40 μL. The reaction mixture contained 0.1 nM Mcl-1(171-327), 0.05 nM biotin-Bim(51-76), 0.05 nM LANCES Eu-W1024 Anti-6×His (PerkinElmer), 0.072 nM Streptavidin-Xlent (Cisbio, Bedford, Mass.), and serially diluted test compounds in the binding buffer of 20 mM Hepes, pH 7.5, 150 mM NaCl, 0.016 mM Brij®35, and 1 mM dithiothreitol. Test compounds were pre-incubated with Mcl-1(171-327) and biotin-Bim (51-76) for 60 min before addition of the detection mixture (LANCE® Eu-W1024 Anti-6×His and Streptavidin-Xlent). The reaction plates were further incubated overnight and then were read on an Envision® multimode reader (PerkinElmer). Fluorescence signals were measured at 620 nm (40-nm bandwidth) and 665 nm (7.5-nm bandwidth) with a 60 μs delay after excitation at 320 nm (75-nm bandwidth). The signal ratio at 665/620 nm corresponded to the Mcl-1/Bim interaction and was used in all data analyses. The IC50 values of test compounds were determined from duplicate data by analyzing competition curves using a four-parameter sigmoidal model in GraphPad Prism (GraphPad Software, San Diego, Calif.) or in Genedata Screener® (Genedata, Basel, Switzerland).

Compound | IC50 ([1]; 16 h) | IC50 [2] | IC50 ([1]; Homo sapiens, OPM-2, 16 h)
COCCN1CCN(C[C@H]2CCC[C@H](C)[C@@H](C)S(=O)(=O)NC(=O)c3ccc4c(c3)N(C[C@@H]3CC[C@@H]23)C[C@@]2(CCCc3cc(Cl)ccc32)CO4)CC1 (single isomer, unassigned) [Example 39] | 535 nM | 0.829 nM | 
C[C@@H]1[C@@H](C)CCC[C@H]([C@@H](C)O)[C@@H]2CC[C@H]2CN2C[C@@]3(CCCc4cc(Cl)ccc43)COc3ccc(cc32)C(=O)NS1(=O)=O (single isomer, unassigned) [Example 40] | 564 nM | 0.822 nM | 
C[C@@H]1[C@@H](C)CCC[C@H](CS(C)(=O)=O)[C@@H]2CC[C@H]2CN2C[C@@]3(CCCc4cc(Cl)ccc43)COc3ccc(cc32)C(=O)NS1(=O)=O (single isomer, unassigned) [Example 41] | 567 nM | 0.284 nM | 
C[C@@H]1CS(=O)(=O)NC(=O)c2ccc3c(c2)N(C[C@@H]2CC[C@H]2[C@@H](CO)CC[C@@H]1C)C[C@@]1(CCCc2cc(Cl)ccc21)CO3 (single isomer, unassigned) [Example 43] | 599 nM | 0.268 nM | 
C[C@@H]1[C@@H](C)CCC[C@@H](CS(C)(=O)=O)[C@@H]2CC[C@H]2CN2C[C@@]3(CCCc4cc(Cl)ccc43)COc3ccc(cc32)C(=O)NS1(=O)=O (single isomer, unassigned) [Example 44] | 617 nM | 0.502 nM | 
CC(=O)[C@@H]1CCC[C@H](C)[C@@H](C)S(=O)(=O)NC(=O)c2ccc3c(c2)N(C[C@@H]2CC[C@H]21)C[C@@]1(CCCc2cc(Cl)ccc21)CO3 (single isomer, unassigned) [Example 45] | 675 nM | 0.338 nM | 
C[C@@H]1[C@@H](C)CCC[C@H](CN2CCOCC2)[C@@H]2CC[C@H]2CN2C[C@@]3(CCCc4cc(Cl)ccc43)COc3ccc(cc32)C(=O)NS1(=O)=O (single isomer, unassigned) [Example 46] | 724 nM | 0.743 nM | 
C[C@@H]1[C@@H](C)CCC[C@@H]([C@@H](O)C(F)(F)F)[C@@H]2CC[C@H]2CN2C[C@@]3(CCCc4cc(Cl)ccc43)COc3ccc(cc32)C(=O)NS1(=O)=O (single isomer, unassigned) [Example 47] | 756 nM | 1.61 nM | 
CC(=O)N1CCN2CCN(C[C@H]3CCC[C@H](C)[C@@H](C)S(=O)(=O)NC(=O)c4ccc5c(c4)N(C[C@@H]4CC[C@@H]34)C[C@@]3(CCCc4cc(Cl)ccc43)CO5)C[C@H]2C1 (single isomer, unassigned) [Example 48] | 768 nM | 0.329 nM | 
CC[C@@H](O)[C@@H]1/C=C/C[C@H](C)[C@@H](C)S(=O)(=O)NC(=O)c2ccc3c(c2)N(C[C@@H]2CC[C@H]21)C[C@@]1(CCCc2cc(Cl)ccc21)CO3 (single isomer, unassigned) [Example 49] | 778 nM | 0.377 nM | 
C[C@@H]1[C@@H](C)CCC[C@H](CN2CC3(CCCN3C)C2)[C@@H]2CC[C@H]2CN2C[C@@]3(CCCc4cc(Cl)ccc43)COc3ccc(cc32)C(=O)NS1(=O)=O (single isomer, unassigned) [Example 50] | 785 nM | 0.923 nM | 
C[C@H]1CCC[C@H](CO)[C@@H]2CC[C@H]2CN2C[C@@]3(CCCc4cc(Cl)ccc43)COc3ccc(cc32)C(=O)NS(=O)(=O)C1 (single isomer, unassigned) [Example 51] | 936 nM | 0.222 nM | 
C[C@@H]1[C@@H](C)CCC[C@H](C(=O)O)[C@@H]2CC[C@H]2CN2C[C@@]3(CCCc4cc(Cl)ccc43)COc3ccc(cc32)C(=O)NS1(=O)=O (single isomer, unassigned) [Example 52] | 939 nM | 0.107 nM | 
CC[C@@H](O)[C@H]1/C=C/C[C@H](C)[C@@H](C)S(=O)(=O)NC(=O)c2ccc3c(c2)N(C[C@@H]2CC[C@H]21)C[C@@]1(CCCc2cc(Cl)ccc21)CO3 (single isomer, unassigned) [Example 54] | 989 nM | 0.624 nM | 
C[C@@H]1[C@@H](C)CCC[C@H](CN2CCN3CCN(C)C[C@@H]3C2)[C@@H]2CC[C@H]2CN2C[C@@]3(CCCc4cc(Cl)ccc43)COc3ccc(cc32)C(=O)NS1(=O)=O (single isomer, unassigned) [Example 56] | 1030 nM | 0.52 nM | 
COCCNC(=O)[C@@H]1CCC[C@H](C)[C@@H](C)S(=O)(=O)NC(=O)c2ccc3c(c2)N(C[C@@H]2CC[C@H]21)C[C@@]1(CCCc2cc(Cl)ccc21)CO3 (single isomer, unassigned) [Example 57] |  | 0.604 nM | 1170 nM
C[C@@H]1[C@@H](C)CCC[C@H]([C@@H](C)O)[C@@H]2CC[C@H]2CN2C[C@@]3(CCCc4cc(Cl)ccc43)COc3ccc(cc32)C(=O)NS1(=O)=O (single isomer, unassigned) [Example 58] | 1230 nM | 0.995 nM | 
COCC[C@@H]1[C@@H](C)CCC[C@H](CO)[C@@H]2CC[C@H]2CN2C[C@@]3(CCCc4cc(Cl)ccc43)COc3ccc(cc32)C(=O)NS1(=O)=O (single isomer, unassigned) [Example 59] | 1320 nM | 0.921 nM | 
CC[C@H](O)[C@H]1/C=C/C[C@H](C)[C@@H](C)S(=O)(=O)NC(=O)c2ccc3c(c2)N(C[C@@H]2CC[C@H]21)C[C@@]1(CCCc2cc(Cl)ccc21)CO3 (single isomer, unassigned) [Example 61] | 1410 nM | 0.281 nM | 
C[C@@H]1[C@@H](C)CCC[C@H](CO)[C@@H]2CC[C@H]2CN2C[C@@]3(CCCc4cc(Cl)ccc43)COc3ccc(cc32)C(=O)NS1(=O)=O (single isomer, unassigned) [Example 63] | 1460 nM | 0.997 nM | 
C[C@@H]1[C@@H](C)CCC[C@@H]([C@H](O)C(F)(F)F)[C@@H]2CC[C@H]2CN2C[C@@]3(CCCc4cc(Cl)ccc43)COc3ccc(cc32)C(=O)NS1(=O)=O (single isomer, unassigned) [Example 66] | 1600 nM | 7.29 nM | 
C[C@@H]1[C@@H](C)CCC[C@H](CN2CCOCC2)[C@@H]2CC[C@H]2CN2C[C@@]3(CCCc4cc(Cl)ccc43)COc3ccc(cc32)C(=O)NS1(=O)=O (single isomer, unassigned) [Example 67] | 1670 nM | 1.05 nM | 
C[C@@H]1[C@@H](C)CCC[C@H]([C@H](O)C2CCN(C)CC2)[C@@H]2CC[C@H]2CN2C[C@@]3(CCCc4cc(Cl)ccc43)COc3ccc(cc32)C(=O)NS1(=O)=O (single isomer, unassigned) [Example 68] | 1670 nM | 0.938 nM | 
C[C@H]([C@H]1CCC[C@H](C)[C@@H](C)S(=O)(=O)NC(=O)c2ccc3c(c2)N(C[C@@H]2CC[C@H]21)C[C@@]1(CCCc2cc(Cl)ccc21)CO3)N1CCOCC1 (single isomer, unassigned) [Example 70] | 1860 nM | 0.843 nM | 
CC[C@@H]1CCCC[C@H](CO)[C@@H]2CC[C@H]2CN2C[C@@]3(CCCc4cc(Cl)ccc43)COc3ccc(cc32)C(=O)NS1(=O)=O (single isomer, unassigned) [Example 71] | 1950 nM | 0.359 nM | 
C[C@H]([C@H]1CCC[C@H](C)[C@@H](C)S(=O)(=O)NC(=O)c2ccc3c(c2)N(C[C@@H]2CC[C@H]21)C[C@@]1(CCCc2cc(Cl)ccc21)CO3)N1CCOCC1 (single isomer, unassigned) [Example 72] | 1990 nM | 0.849 nM | 
C[C@@H]1[C@@H](C)CCC[C@H](C)[C@@H]2CC[C@H]2CN2C[C@@]3(CCCc4cc(Cl)ccc43)COc3ccc(cc32)C(=O)NS1(=O)=O (single isomer, unassigned) [Example 73] | 17000 nM | 7.41 nM | 
